Laboratory results from US20060069132A1, “Azolecarboxamide herbicides” (priority 2004, published 2006).

Experiments:
pigweed = assay: Test B pre-/postemergence herbicide test; type: in vivo, Amaranthus retroflexus; details: for Pigweed plant response rating: postemergence
Summary of the method: (§1)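 Visual rating, 0 (no effect) to 100 (complete control), versus untreated controls after 13–15 d in greenhouse. Pre- and postemergence applications (postemergence plants 2–18 cm, 1–4 leaves); flooded paddy arm at 2-leaf stage. Compounds in non-phytotoxic solvent plus surfactant.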

barnyardgrass = assay: Test B flooded paddy test; type: in vivo, Echinochloa crus-galli; details: 1000 g ai/ha, scale 0 to 100 (0 no effect, 100 complete control)
Summary of the method: (§2)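 Greenhouse test; postemergence application to plants at 1–4 leaves (2–18 cm); paddy species at 2 leaves; evaluated visually vs controls at 13–15 days; scale 0–100 (100 = complete control).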

blackgrass = assay: Test B postemergence herbicide test; type: in vivo, Alopecurus myosuroides; details: postemergence
Summary of the method: as §2

large crabgrass = assay: Test B pre-/postemergence herbicide test; type: in vivo, Digitaria sanguinalis; details: for Crabgrass, Large plant response rating (0 to 100 scale) / Plant response rating, Crabgrass, Large: 0 = no effect, 100 = complete control, preemergence; for Crabgrass, Large plant response rating: postemergence
Summary of the method: as §1

giant foxtail = assay: Test B pre-/postemergence herbicide test; type: in vivo, Setaria faberi; details: for Foxtail, Giant plant response rating (0 to 100 scale) / Plant response rating, Foxtail, Giant: 0 = no effect, 100 = complete control, preemergence; for Foxtail, Giant plant response rating: postemergence
Summary of the method: as §1

[1] = test system: small flower umbrella sedge; assay: Test B flooded paddy test; type: in vivo, Cyperus difformis; details: 1000 g ai/ha, scale 0 to 100 (0 no effect, 100 complete control)
Summary of the method: as §2

corn = assay: Test B pre-/postemergence herbicide test; type: in vivo, Zea mays; details: for Corn plant response rating (0 to 100 scale) / Plant response rating, Corn: 0 = no effect, 100 = complete control, preemergence; for Corn plant response rating: postemergence
Summary of the method: as §1

Surinam grass = assay: Test B pre-/postemergence herbicide test; type: in vivo, Urochloa decumbens; details: for Surinam Grass plant response rating (0 to 100 scale) / Plant response rating, Surinam Grass: 0 = no effect, 100 = complete control, preemergence; for Surinam Grass plant response rating: postemergence
Summary of the method: as §1

wheat = assay: Test B postemergence herbicide test; type: in vivo, Triticum aestivum; design: key to Wheat plant response rating: 0 = no effect, 100 = complete control; details: postemergence
Summary of the method: (§3)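 Read-out: visual comparison with controls, scored 0 to 100, where 100 means complete control and 0 no effect. Formulated chemicals were applied postemergence to plants 2–18 cm tall (1- to 4-leaf), or to flooded-paddy plants at the 2-leaf stage, then held 13 to 15 days under glass.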

velvetleaf = assay: Test B pre-/postemergence herbicide test; type: in vivo, Abutilon theophrasti; details: for Velvetleaf plant response rating: postemergence; for Plant response rating, Velvetleaf: 0 = no effect, 100 = complete control, preemergence
Summary of the method: as §1

rice = assay: Test B flooded paddy test; type: in vivo, Oryza sativa; details: 1000 g ai/ha, scale 0 to 100 (0 no effect, 100 complete control)
Summary of the method: as §3

lambsquarters = assay: Test B pre-/postemergence herbicide test; type: in vivo, Chenopodium album; details: for Lambsquarters plant response rating: postemergence
Summary of the method: as §1

ducksalad = assay: Test B flooded paddy test; type: in vivo, Heteranthera limosa; details: 1000 g ai/ha, scale 0 to 100 (0 no effect, 100 complete control)
Summary of the method: as §2

wild oat = assay: Test B postemergence herbicide test; type: in vivo, Avena fatua; details: postemergence
Summary of the method: as §3

morningglory = assay: Test B pre-/postemergence herbicide test; type: in vivo, Ipomoea coccinea; details: for Morningglory plant response rating (0 to 100 scale) / Plant response rating, Morningglory: 0 = no effect, 100 = complete control, preemergence; for Morningglory plant response rating: postemergence
Summary of the method: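 Greenhouse pot assay with simultaneous preemergence (treated seed) and postemergence (2–18 cm seedlings) applications of surfactant-containing, non-phytotoxic solvent formulations. Response scored visually 13–15 days later on a 0–100 scale, 100 meaning complete control.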

[2] = 125 g ai/ha, 0 = no effect, 100 = complete control, preemergence
[3] = 125 g ai/ha, visual rating, scale 0 (no effect) to 100 (complete control)
[4] = 500 g ai/ha, scale 0 to 100, 0 is no effect, 100 is complete control
[5] = 500 g ai/ha, visual rating, 0 = no effect, 100 = complete control, preemergence

CCOC(=O)c1cccc(NC(=O)c2cc(C3(C)CC3)nn2CC)c1 [Compound 295]
Pigweed plant response rating (0 to 100 scale) (pigweed; [2]): 0 | Pigweed plant response rating (pigweed; [3]): 100 | Pigweed plant response rating (pigweed; [4]): 100 | Barnyardgrass plant response rating (barnyardgrass): 60 | Blackgrass plant response rating (blackgrass; [3]): 30 | Blackgrass plant response rating (blackgrass; [4]): 40 | Crabgrass, Large plant response rating (0 to 100 scale) (large crabgrass; 125 g ai/ha): 10 | Crabgrass, Large plant response rating (large crabgrass; [3]): 30 | Plant response rating, Crabgrass, Large (large crabgrass; 500 g ai/ha, visual rating): 80 | Crabgrass, Large plant response rating (large crabgrass; [4]): 60 | Foxtail, Giant plant response rating (0 to 100 scale) (giant foxtail; 125 g ai/ha): 10 | Foxtail, Giant plant response rating (giant foxtail; [3]): 60 | Plant response rating, Foxtail, Giant (giant foxtail; 500 g ai/ha, visual rating): 70 | Foxtail, Giant plant response rating (giant foxtail; [4]): 70 | Sedge, Umbrella plant response rating [1]: 80 | Corn plant response rating (0 to 100 scale) (corn; 125 g ai/ha): 0 | Corn plant response rating (corn; [3]): 10 | Plant response rating, Corn (corn; 500 g ai/ha, visual rating): 10 | Corn plant response rating (corn; [4]): 20 | Surinam Grass plant response rating (0 to 100 scale) (Surinam grass; 125 g ai/ha): 0 | Surinam Grass plant response rating (Surinam grass; [3]): 50 | Plant response rating, Surinam Grass (Surinam grass; 500 g ai/ha, visual rating): 20 | Surinam Grass plant response rating (Surinam grass; [4]): 60 | Wheat plant response rating (wheat; [3]): 20 | Wheat plant response rating (wheat; [4]): 30 | Velvetleaf plant response rating (velvetleaf; [3]): 70 | Plant response rating, Velvetleaf (velvetleaf; 500 g ai/ha, visual rating): 60 | Velvetleaf plant response rating (velvetleaf; [4]): 100 | Rice plant response rating (rice): 50 | Lambsquarters plant response rating (0 to 100 scale) (lambsquarters; [2]): 0 | Lambsquarters plant response rating (lambsquarters; [3]): 40 | Lambsquarters plant response rating (lambsquarters; [4]): 60 | Ducksalad plant response rating (ducksalad): 70 | Oat, Wild plant response rating (wild oat; [3]): 40 | Oat, Wild plant response rating (wild oat; [4]): 50 | Morningglory plant response rating (0 to 100 scale) (morningglory; 125 g ai/ha): 0 | Morningglory plant response rating (morningglory; [3]): 50 | Plant response rating, Morningglory (morningglory; 500 g ai/ha, visual rating): 20 | Morningglory plant response rating (morningglory; [4]): 100

CCn1nc(C(C)(C)C)cc1C(=O)Nc1ccc(OC)c(OC)c1 [Compound 298]
Pigweed plant response rating (0 to 100 scale) (pigweed; [2]): 100 | Pigweed plant response rating (pigweed; [3]): 80 | Plant response rating, Pigweed (pigweed; [5]): 100 | Pigweed plant response rating (pigweed; [4]): 90 | Barnyardgrass plant response rating (barnyardgrass): 90 | Blackgrass plant response rating (blackgrass; [3]): 20 | Blackgrass plant response rating (blackgrass; [4]): 50 | Crabgrass, Large plant response rating (0 to 100 scale) (large crabgrass; 125 g ai/ha): 100 | Crabgrass, Large plant response rating (large crabgrass; [3]): 20 | Plant response rating, Crabgrass, Large (large crabgrass; 500 g ai/ha, visual rating): 100 | Crabgrass, Large plant response rating (large crabgrass; [4]): 70 | Foxtail, Giant plant response rating (0 to 100 scale) (giant foxtail; 125 g ai/ha): 80 | Foxtail, Giant plant response rating (giant foxtail; [3]): 10 | Plant response rating, Foxtail, Giant (giant foxtail; 500 g ai/ha, visual rating): 100 | Foxtail, Giant plant response rating (giant foxtail; [4]): 50 | Sedge, Umbrella plant response rating [1]: 70 | Corn plant response rating (0 to 100 scale) (corn; 125 g ai/ha): 30 | Corn plant response rating (corn; [3]): 0 | Plant response rating, Corn (corn; 500 g ai/ha, visual rating): 70 | Corn plant response rating (corn; [4]): 10 | Surinam Grass plant response rating (0 to 100 scale) (Surinam grass; 125 g ai/ha): 80 | Surinam Grass plant response rating (Surinam grass; [3]): 20 | Plant response rating, Surinam Grass (Surinam grass; 500 g ai/ha, visual rating): 100 | Surinam Grass plant response rating (Surinam grass; [4]): 50 | Wheat plant response rating (wheat; [3]): 20 | Wheat plant response rating (wheat; [4]): 30 | Velvetleaf plant response rating (velvetleaf; [3]): 60 | Plant response rating, Velvetleaf (velvetleaf; 500 g ai/ha, visual rating): 60 | Velvetleaf plant response rating (velvetleaf; [4]): 60 | Rice plant response rating (rice): 80 | Lambsquarters plant response rating (0 to 100 scale) (lambsquarters; [2]): 100 | Lambsquarters plant response rating (lambsquarters; [3]): 40 | Plant response rating, Lambsquarters (lambsquarters; [5]): 100 | Lambsquarters plant response rating (lambsquarters; [4]): 90 | Ducksalad plant response rating (ducksalad): 90 | Oat, Wild plant response rating (wild oat; [3]): 30 | Oat, Wild plant response rating (wild oat; [4]): 40 | Morningglory plant response rating (0 to 100 scale) (morningglory; 125 g ai/ha): 10 | Morningglory plant response rating (morningglory; [3]): 60 | Plant response rating, Morningglory (morningglory; 500 g ai/ha, visual rating): 40 | Morningglory plant response rating (morningglory; [4]): 70
